The source of these data is ChEMBL document CHEMBL1201862, “PubChem BioAssay data set” (2004).

Some test systems named below: A498; CAKI-1; COLO 205; DU-145; HCT-116; IGROV-1; K562; KM12; LOX IMVI; MDA-MB-435; MDA-N; NCI-H23; NCI-H522; SF-268; SF-295; SK-MEL-28; SK-OV-3; SN12C; SR; T47D.
Common to all, as to assay: growth of human tumour cells (NCI), 48 h

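Cultured in 96-well plates, cells were exposed to test compound for 48 hours across five concentrations. At the GI50, growth is halved.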 Calls of active or inactive are those of the source. Rule as the data show it: active = GI50 up to about 1.1 µM and inactive = higher.

Regarding `O=C1/C(=C/c2ccc(Cl)c(Cl)c2)CNC/C1=C\c1ccc(Cl)c(Cl)c1`, the GI50 is 18.3 µM (inactive) in the test with A498; 4.09 µM (inactive) in the test with CAKI-1; 5.27 µM (inactive) in the test on COLO 205; 49 µM (inactive) in the test on DU-145; 2.57 µM (inactive) in the test with HCT-116; 7.6 µM (inactive) in the test with IGROV-1. The GI50 in the test on K562 is 3.1 µM (inactive); in the test on KM12, 6.76 µM (inactive); with LOX IMVI, 5.07 µM (inactive); in the test with MDA-MB-435, 20.9 µM (inactive); in the test on MDA-N, 20.4 µM (inactive); with NCI-H23, 8.51 µM (inactive). Further, the GI50 is 11 µM (inactive) with NCI-H522; 3.95 µM (inactive) in the test with SF-268; 9.2 µM (inactive) in the test with SF-295; 26.3 µM (inactive) with SK-MEL-28; 40.7 µM (inactive) in the test with SK-OV-3; 5.08 µM (inactive) in the test on SN12C. Further, in the test with SR, the GI50 is 3.96 µM (inactive).
For the compound `CCOC(=O)Cc1c(C)c2ccc(OC(C)=O)c(OC(C)=O)c2oc1=O`, the GI50 is 44.1 µM (inactive) with A498; 40 µM (inactive) in the test on COLO 205; 24.9 µM (inactive) with DU-145; 34 µM (inactive) in the test on HCT-116; 15.3 µM (inactive) in the test with IGROV-1; 28.8 µM (inactive) in the test on K562. The GI50 was 32.7 µM (inactive) in the test on KM12; 25.3 µM (inactive) in the test on LOX IMVI; 28.1 µM (inactive) in the test with MDA-MB-435; > 100 µM (inactive) in the test with MDA-N; 22.4 µM (inactive) in the test on NCI-H23; 19.6 µM (inactive) with SF-268. Moreover, the GI50 with SF-295 is 36.7 µM (inactive); in the test on SK-MEL-28 it was 21.3 µM (inactive); with SK-OV-3 it was > 100 µM (inactive); with SN12C, 41.8 µM (inactive); with SR, 14.3 µM (inactive).
Take `COc1nc(C(=O)NNC(=O)c2nc(OC)c3ccccc3c2-c2ccccc2)c(-c2ccccc2)c2ccccc12`: the GI50 with A498, in the test with CAKI-1, with COLO 205, in the test with DU-145, in the test with HCT-116 and with IGROV-1 was > 100 µM (inactive) throughout. Moreover, the GI50 in the test with K562, in the test on KM12, in the test with MDA-MB-435, in the test on NCI-H23, in the test on NCI-H522 and with SF-268 was > 100 µM (inactive) throughout. For the same compound, the GI50 in the test on SF-295 was > 100 µM (inactive); in the test on SK-MEL-28, > 100 µM (inactive); in the test on SK-OV-3, > 100 µM (inactive); with SN12C it was > 100 µM (inactive); with SR it was 0.113 µM (active); with T47D, > 100 µM (inactive).
On to `COC1=CC(=O)O/C1=C(\OC)C1OC1c1ccccc1` (configuration not stated), for which the GI50 with A498, with CAKI-1, in the test on COLO 205, with DU-145, with HCT-116 and with IGROV-1 was > 100 µM (inactive) each time. For the same compound, the GI50 in the test on KM12, in the test with LOX IMVI, in the test with MDA-MB-435, in the test on NCI-H23, in the test with NCI-H522 and in the test on SF-268 was > 100 µM (inactive) each time. Further, the GI50 in the test on SF-295 was > 100 µM (inactive); in the test with SK-MEL-28 it was > 100 µM (inactive); in the test on SK-OV-3 it was > 100 µM (inactive); with SN12C it was > 100 µM (inactive); in the test with SR, 13 µM (inactive); with T47D, 76 µM (inactive).
Turning to `Cc1ccc(S(=O)(=O)OCC(=O)O)cc1`, the GI50 in the test with A498, with CAKI-1, with DU-145, in the test with HCT-116, in the test with IGROV-1 and in the test on K562 was > 100 µM (inactive) each time. In addition, the GI50 with LOX IMVI, with MDA-N, in the test on NCI-H23, in the test with NCI-H522, in the test on SF-268 and in the test on SF-295 was > 100 µM (inactive) throughout. Also, the GI50 in the test with SK-MEL-28, in the test on SN12C, with SR and in the test on T47D was > 100 µM (inactive) each time.
Turning to `COc1cc(CC2CC(c3ccc4c(c3)OCO4)OC2=O)cc(OC)c1OC` (configuration not stated), the GI50 in the test with A498 is > 100 µM (inactive); in the test on CAKI-1 it was 59.2 µM (inactive); in the test on COLO 205, > 100 µM (inactive); in the test with DU-145, > 100 µM (inactive); with HCT-116, > 100 µM (inactive); in the test with K562 it was 71.8 µM (inactive). The GI50 in the test with KM12, in the test with LOX IMVI, in the test on MDA-MB-435, in the test on NCI-H23, with SF-268 and in the test with SF-295 was > 100 µM (inactive) in each case. Further, the GI50 with SK-MEL-28 is > 100 µM (inactive); with SK-OV-3, > 100 µM (inactive); with SN12C it was > 100 µM (inactive); in the test on SR, > 100 µM (inactive); in the test with T47D, 39 µM (inactive).
`N#CC1C(=O)NC2=C(CCOc3c2ccc2ccccc32)C1c1ccc(F)cc1` (configuration not stated): the GI50 in the test with A498 was 19.7 µM (inactive); with CAKI-1, 31.5 µM (inactive); in the test with COLO 205, 61 µM (inactive); with DU-145, 29.1 µM (inactive); in the test on HCT-116, 14 µM (inactive); in the test on IGROV-1, 17.3 µM (inactive). Also, the GI50 in the test with K562 was > 100 µM (inactive); in the test on KM12 it was 67.5 µM (inactive); in the test with MDA-MB-435, 40.9 µM (inactive); in the test with NCI-H23, 23.4 µM (inactive); in the test with NCI-H522, 37.1 µM (inactive); in the test on SF-268, 22.4 µM (inactive). Moreover, the GI50 with SF-295 is 20.4 µM (inactive); in the test on SK-OV-3 it was 24.8 µM (inactive); in the test on SN12C, 10.8 µM (inactive); in the test on T47D, 27.4 µM (inactive).
Regarding `Cc1c(NC(=S)N/N=C\C(=N/NC(=S)Nc2c(C)n(C)n(-c3ccccc3)c2=O)c2ccccc2)c(=O)n(-c2ccccc2)n1C`, the GI50 in the test on A498, in the test with CAKI-1, with COLO 205, in the test with DU-145, in the test on HCT-116 and with KM12 was > 100 µM (inactive) in each case. Also, the GI50 with MDA-MB-435, in the test with NCI-H23, in the test with SF-268, with SF-295, with SK-OV-3 and in the test with SR was > 100 µM (inactive) in each case. Besides, the GI50 in the test on T47D was > 100 µM (inactive).
As to `Cc1ccc(C)n1-c1ccccc1C1C=Cn2c3c1c(=O)c(OC(C)C)c(OC(C)C)c-3n[nH]c2=O` (configuration not stated), the GI50 is > 100 µM (inactive) with A498; 31.8 µM (inactive) in the test on CAKI-1; 13.1 µM (inactive) in the test with COLO 205; 99.3 µM (inactive) with DU-145; 19.2 µM (inactive) in the test on HCT-116; 30.1 µM (inactive) in the test with IGROV-1. Moreover, the GI50 was 12.2 µM (inactive) in the test with K562; 19.9 µM (inactive) in the test with KM12; 25.9 µM (inactive) with LOX IMVI; 21.8 µM (inactive) in the test with MDA-MB-435; 37.6 µM (inactive) with MDA-N; 53.8 µM (inactive) with NCI-H23. For the same compound, the GI50 in the test on NCI-H522 is 17 µM (inactive); with SF-268 it was 59.2 µM (inactive); in the test on SF-295, 27 µM (inactive); in the test on SK-MEL-28 it was 17.5 µM (inactive); with SK-OV-3, > 100 µM (inactive); with SN12C it was 42 µM (inactive).
Consider `C/C(=C\Cc1ccc(F)cc1)CCCCCC/C(C)=C/Cc1ccc(F)cc1`, for which the GI50 in the test with CAKI-1 is 9.89 µM (inactive); in the test on COLO 205 it was 16.4 µM (inactive); with DU-145, 14.2 µM (inactive); in the test on HCT-116, 15.8 µM (inactive); with IGROV-1, 4.63 µM (inactive); in the test with K562, 5.3 µM (inactive). Moreover, the GI50 in the test on KM12 is 2.25 µM (inactive); in the test on LOX IMVI, 3.91 µM (inactive); in the test with MDA-MB-435, 16.5 µM (inactive); in the test with MDA-N, 18.5 µM (inactive); in the test with NCI-H23, 10.8 µM (inactive); with NCI-H522, 6.59 µM (inactive). Further, the GI50 is 19.5 µM (inactive) with SF-268; 10 µM (inactive) with SF-295; 37.8 µM (inactive) in the test on SK-OV-3; 15.7 µM (inactive) in the test with SN12C; 18.3 µM (inactive) in the test with SR.
With `CCOC(=O)c1[nH]c2ccccc2c1C(=O)C[C@H](NC(=O)C(F)(F)F)C(=O)OC`, the GI50 with A498, with CAKI-1, in the test on COLO 205, in the test on DU-145, in the test on HCT-116 and in the test on IGROV-1 was > 100 µM (inactive) each time. For the same compound, the GI50 in the test with K562, in the test with KM12, in the test with LOX IMVI, in the test on MDA-MB-435, with MDA-N and with NCI-H23 was > 100 µM (inactive) in each case. The GI50 in the test with NCI-H522 is 97.3 µM (inactive); in the test with SF-268, > 100 µM (inactive); in the test on SF-295, > 100 µM (inactive); with SK-MEL-28 it was > 100 µM (inactive); in the test with SN12C it was > 100 µM (inactive); with SR it was > 100 µM (inactive).
